Measurements as given in patent US8933244B2, “Stabilized active halogen solutions” (Lonza Inc., priority 2009, dated 2015).

Tests used:
[1] = system: Enterobacter aerogenes (ATCC 13048) and Pseudomonas aeruginosa (ATCC 15442); assay: Biocidal efficacy in paper pulp slurry (modified ASTM E: 1839-07); format: cell-based; conditions: 2 ppm total Cl2, 3 h, 34° C., DMH 1.81 ppm alone
Experimental: The conditions of the experiment were a modification of the method described in ASTM E: 1839-07. A 1% pulp slurry was prepared via shredding white laser printer paper and adding to an appropriate amount of 400 ppm alkalinity (as CaCO3) water solution. The slurry was rapidly mixed while heating to 98(±2) ° C., followed by cooling to room temperature. The pH was adjusted to 8.5 with 1N H2SO4 and the slurry was diluted to 0.5% with deionized water. A 98(±1) mL aliquot was transferred to a 125 mL sample flask and steam sterilized and cooled to room temperature prior to use.
Stock solutions of NaOCl at either 51,000 ppm or 400 ppm (as Cl2) were freshly prepared prior to the organism challenge test. Dilutions of the test samples were made in order to prepare a sample solution at the desired Cl2:Active Ingredient molar ratio and the flasks were dosed according to the target total Cl2 desired (2 ppm total Cl2).
Twenty four hour cultures of Enterobacter aerogenes (ATCC 13048) and Pseudomonas aeruginosa (ATCC 15442) were used for the testing. Microbiological counts were performed using tryptic soy agar (TSA) […] by known pour plate techniques. Final bacterial concentration of the inoculum was between 2×10^6 and 1×10^7 CFU/mL. 1 mL of the inoculum was then placed into each of the sample to be tested and the samples placed onto a shaker for 3 hours at 34° C. After the 3 hour contact time, DIFCO Dey-Engley (D/E) Neutralizing Broth was used as the first serial dilution tube for biocide neutralization and dilutions were plated through 10^6.

[2] = Continuous flow mixing of stabilizer solution with sodium hypochlorite: temperature excursion and pH change; format: physicochemical; conditions: for ΔpH: 12.2% NaOCl (initial pH 12.6); for ΔT: 12.2% NaOCl
Experimental: For each data point, the combined flow rates of the stabilizer and hypochlorite solutions were adjusted in order to maintain the desired molar ratio of NaOCl to active ingredient (A.I.). The solution temperature was recorded before the onset of flow and after combination with the hypochlorite solution. In addition, the final pH of the resulting collected solution was recorded after a 2 min interval of continuous flow.
Stabilizer solutions of the present invention were prepared via dissolution of at least one substituted N-hydrogen compound (DMH=5,5-dimethylhydantoin and/or Amine=ethanolamine, morpholine) (i), and of at least one additional containing nitrogen compound (ii) in water with the pH adjusted to 7-9.5, if necessary. […]
Sodium hypochlorite solutions were used directly at high concentration (12.2%).
Consistent with known ammonia and urea chemistry (vide supra), mixing a halogen source and ammonium salt solutions at Cl2:N ratios greater than 1 (e.g., 2-4) usually results in substantial exothermic temperature excursions (ΔT, in Kelvin) and reductions in pH due to decomposition reactions that occur.

[3] = high pH (12.4-13.4); Cl2:urea ratios of 1:1-2:1; WO 2007/089539 A2 / US 2007/0178173 A1; cited from earlier work
[4] = 15% active ingredients, Cl2:NH3 or Cl2:Urea 2
[5] = 15% active ingredients, Cl2:NH3 or Cl2:Urea 4
[6] = 17% active ingredients, Cl2:NH3 or Cl2:Urea 4
[7] = 5% active ingredients, Cl2:NH3 or Cl2:Urea 2.5
[8] = 15% active ingredients, Cl2:NH3 or Cl2:Urea 8

Q: What does the source list for CC1(C)NC(=O)NC1=O [DMH, 5,5-dimethylhydantoin]?
A: Efficacy (Δlg) ([1]; box paper pulp slurry): 0.1 Δlg; Efficacy (Δlg) ([1]; fine paper pulp slurry (Table 3 series)): 3.2 Δlg; Efficacy (Δlg) ([1]; fine paper pulp slurry (Table 4 series)): 2.9 Δlg

Q: Which ΔpH [2, 4] does the source give for Br.N [NH4Br, ammonium bromide] here?
A: −9.5

Q: What about the ΔpH [2, 5] of the same molecule?
A: −5.3

Q: What about the ΔpH [2, 6] of the same molecule?
A: −5.3

Q: What about the ΔT [2, 4] of the same molecule?
A: 37 K

Q: What about the ΔT [2, 5] of the same molecule?
A: 31 K

Q: What about the ΔT [2, 6] of the same molecule?
A: 34 K

Q: With NC(N)=O [Urea, urea] as the molecule, how does the ΔpH [2, 7] read?
A: −0.5

Q: And the ΔpH [2, 8]?
A: −0.7

Q: What about the ΔT [2, 7] of the same molecule?
A: 18 K

Q: What about the ΔT [2, 8] of the same molecule?
A: 36 K

Q: And the total halogen yield [3]?
A: 48-69%
